Reference: patent US20210261561A1, “BICYCLIC HETEROCYCLE DERIVATIVES HAVING SELECTIVE BACE1 INHIBITORY ACTIVITY” (SHIONOGI & CO., LTD., priority 2018, published 2021)

How the values were obtained:
[1] = molecular target: T1, BACE1 (Homo sapiens, UniProt P56817); test: BACE1 biochemical FRET based assay (Test Example 2-1); conditions: for selectivity: BACE2 IC50 over BACE1 IC50 (FRET); for IC50: FRET, 0.04 μg/mL BACE1, 450 minutes, Citrate buffer pH 5.0
Excerpt: (§1) This assay is a Fluorescence Resonance Energy Transfer Assay (FRET) based assay. The substrate for this assay is an APP derived 13 amino acids peptide that contains the ‘Swedish’ Lys-Met/Asn-Leu mutation of the amyloid precursor protein (APP) beta-site secretase cleavage site. This substrate also contains two fluorophores: (7-methoxycoumarin-4-yl) acetic acid (Mca) is a fluorescent donor with excitation wavelength at 320 nm and emission at 405 nm and 2,4-dinitrophenol (Dnp) is a proprietary quencher acceptor. […] Upon cleavage by BACE1, the fluorophore Mca is separated from the quenching group Dnp, restoring the full fluorescence yield of the donor. The increase in fluorescence is linearly related to the rate of proteolysis.
(§2) Briefly in a 384-well format recombinant BACE1 protein in a final concentration of 0.04 μg/mL is incubated for 450 minutes at room temperature with […] substrate in incubation buffer (final concentrations: 33.3 mM Citrate buffer pH 5.0, 0.033% PEG, 3% DMSO) in the absence or presence of compound. Next the amount of proteolysis is directly measured by fluorescence measurement at T=0′-120′ and T=450′ (excitation at 320 nm and emission at 405 nm). Results are expressed in RFU (Relative Fluorescence Units), as difference between T450 and Tx (Tx is chosen depending on the reaction speed between 0 and 120 minutes.).
A best-fit curve is fitted by a minimum sum of squares method to the plot of % Controlmin versus compound concentration. From this an IC50 value (inhibitory concentration causing 50% inhibition of activity) can be obtained.

[2] = molecular target: T2, BACE2 (Homo sapiens, UniProt Q9Y5Z0); test: BACE2 biochemical FRET based assay (Test Example 2-1 (2)); conditions: 0.4 μg/mL BACE2, 450 minutes, Citrate buffer pH 5.0
T2 sequence (Q9Y5Z0 63-518): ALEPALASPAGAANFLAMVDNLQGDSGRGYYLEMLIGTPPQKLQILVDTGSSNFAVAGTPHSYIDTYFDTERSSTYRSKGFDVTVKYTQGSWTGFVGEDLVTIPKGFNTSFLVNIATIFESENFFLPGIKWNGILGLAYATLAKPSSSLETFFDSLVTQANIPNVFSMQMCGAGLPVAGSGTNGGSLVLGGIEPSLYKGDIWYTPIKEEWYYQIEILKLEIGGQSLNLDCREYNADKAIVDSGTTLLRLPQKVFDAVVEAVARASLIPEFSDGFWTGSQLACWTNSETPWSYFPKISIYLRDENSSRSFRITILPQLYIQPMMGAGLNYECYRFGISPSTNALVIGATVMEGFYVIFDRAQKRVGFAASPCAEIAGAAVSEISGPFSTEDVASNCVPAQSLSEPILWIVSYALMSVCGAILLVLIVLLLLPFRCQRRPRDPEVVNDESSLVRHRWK
Excerpt: This assay is a Fluorescence Resonance Energy Transfer Assay (FRET) based assay. The substrate for this assay contains the ‘Swedish’ Lys-Met/Asn-Leu mutation of the amyloid precursor protein (APP) beta-secretase cleavage site. This substrate also contains two fluorophores: (7-methoxycoumarin-4-yl) acetic acid (Mca) is a fluorescent donor with excitation wavelength at 320 nm and emission at 405 nm and 2,4-dinitrophenol (Dnp) is a proprietary quencher acceptor. […] Upon cleavage by the beta-secretase, the fluorophore Mca is separated from the quenching group Dnp, restoring the full fluorescence yield of the donor. The increase in fluorescence is linearly related to the rate of proteolysis. Briefly in a 384-well format recombinant BACE2 protein in a final concentration of 0.4 μg/mL was incubated for 450 minutes at room temperature with 10 μM substrate in incubation buffer (final concentrations: 33.3 mM Citrate buffer pH 5.0, 0.033% PEG, 2% DMSO) in the absence or presence of compound. Next the amount of proteolysis was directly measured by fluorescence measurement at T=0 and T=450 (excitation at 320 nm and emission at 405 nm). Results were expressed in RFU (Relative Fluorescence Units), as difference between T450 and TO.
A best-fit curve was fitted by a minimum sum of squares method to the plot of % Controlmin versus compound concentration. From this an IC50 value (inhibitory concentration causing 50% inhibition of activity) can be obtained.

[3] = molecular target: T2, BACE2; test: BACE2 biochemical FRET based assay (Test Example 2-4); conditions: recombinant BACE2 0.4 μg/mL, 10 μM substrate, 450 minutes, pH 5.0; read-out: BACE2 Biochemical FRET based assay pIC50 (converted)
Excerpt: as §1, with “assay” for “assay is an APP derived 13 amino acids peptide that”, “beta-secretase” for “beta-site secretase”, “the beta-secretase,” for “BACE1,”
Briefly in a 384-well format recombinant BACE2 protein in a final concentration of 0.4 μg/mL is incubated for 450 minutes at room temperature with 10 μM substrate in incubation buffer (final concentrations: 33.3 mM Citrate buffer pH 5.0, 0.033% PEG, 2% DMSO) in the absence or presence of compound. Next the amount of proteolysis is directly measured by fluorescence measurement at T=0 and T=450 (excitation at 320 nm and emission at 405 nm). Results are expressed in RFU (Relative Fluorescence Units), as difference between T450 and TO.
(§3) Data are analysed using Screener (Registered trademark) (Genedata, Switzerland). Data were normalized and % inhibition=100−[(sample−LC)/(HC−LC))*100], was plotted versus the log concentration of the test compound. Curves were analysed using non-linear regression analysis and IC50 values (inhibitory concentration causing 50% inhibition of activity) were derived from individual curves.
(§4) LC=Median of the low control values
(§5) =Low control: Reaction without enzyme
(§6) HC=Median of the High control values
(§7) =High Control: Reaction with enzyme
(§8) % Inhibition=100−[(sample−LC)/(HC−LC)*100]

[4] = molecular target: T3, BACE2 (Mus musculus, UniProt Q9JL18); test: BACE2 cellular assay in MIN6 cells, secreted TMEM27 (Test Example 2-5); format: cell-based; conditions: 24 hours incubation, secreted TMEM27 by MSD, read-out: Cellular MSD assay in Min6 cells TV1EV127 pIC50 (converted)
T3 construct: endogenous in cells; host or cells: MIN6 mouse insulinoma cells expressing Flag-V5-TMEM27-HA
T3 sequence (Q9JL18 63-514): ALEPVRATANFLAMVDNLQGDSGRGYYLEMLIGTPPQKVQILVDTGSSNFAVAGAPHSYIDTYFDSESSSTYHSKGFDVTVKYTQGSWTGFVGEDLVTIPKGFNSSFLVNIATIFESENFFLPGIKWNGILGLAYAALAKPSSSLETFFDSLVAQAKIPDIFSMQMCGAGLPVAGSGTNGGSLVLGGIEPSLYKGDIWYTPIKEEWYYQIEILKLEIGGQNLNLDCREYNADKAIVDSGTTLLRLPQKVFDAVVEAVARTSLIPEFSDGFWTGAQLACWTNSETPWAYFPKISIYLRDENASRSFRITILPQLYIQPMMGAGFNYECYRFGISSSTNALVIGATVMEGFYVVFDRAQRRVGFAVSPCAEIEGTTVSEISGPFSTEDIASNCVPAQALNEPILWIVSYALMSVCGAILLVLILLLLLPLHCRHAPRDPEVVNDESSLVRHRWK
Procedure: Cellular BACE2 activity was measured by determination of the level of secreted TMEM27 into the medium of MIN6 cells using an MSD platform. The assay is based on the mouse insulinoma MIN6 cells expressing Flag-V5-TMEM27-HA. When BACE2 cleaves TMEM27 the N-terminal part of TMEM27 with the V5-Flag tag will be shed into the medium, and the amount of this cleaved product is measured with the MSD assay.
Briefly in a 96-well format the cells are incubated for 24 hours in the presence of the compound followed by the measurement of secreted TMEM27 in the medium via MSD using FLAG-L5 coating antibody and a V5 detection antibody. When TMEM27 is captured on the electrode surface of the multi-array microplate the detection antibody, conjugated with the sulfo-Tag™, is in close proximity of the surface, it generates a light via a series of reduction and oxidation reactions. The intensity of the emitted light is measured with the MSD imager to provide a quantitative measure for the analytes in the sample.
as §3, §4, §5, §6, §7, §8

[5] = molecular target: T1, BACE1; test: BACE1 cellular αLisa assay in SKNBE2 cells, Abeta 1-42 (Test Example 2-3); format: cell-based; parameters: endogenous in cells; host or cells: SKNBE2 human neuroblastoma cells expressing hAPP695; conditions: SKNBE2 cells expressing hAPP695, 18 hours incubation, read-out: Cellular αLisa assay in SKNBE2 cells Abeta 42 pIC50 (converted)
Procedure: In two αLisa assays the levels of Abeta 1-42 or Abeta total produced and secreted into the medium of human neuroblastoma SKNBE2 cells are quantified. The assays are based on the human neuroblastoma SKNBE2 expressing the wild type Amyloid Precursor Protein (hAPP695). The compounds are diluted and added to these cells, incubated for 18 hours and then measurements of Abeta 1-42 or Abeta total are taken. Abeta 1-42 or Abeta total are measured by sandwich αLisa using biotinylated antibody AbN/25 attached to streptavidin coated donor beads and antibody cAb42/26 or Ab 4G8 conjugated acceptor beads for the detection of Abeta 1-42 or Abeta total respectively. In the presence of Abeta 1-42 or Abeta total, the beads come into close proximity. The excitation of the donor beads provokes the release of singlet oxygen molecules that trigger a cascade of energy transfer in the acceptor beads, resulting in light emission. Light emission is measured after 1 h incubation (excitation at […] and emission at 615 nm).
as §3
LC=Median of the low control values • =Low control: Reaction without enzyme
HC=Median of the High control values • =High Control: Reaction with enzyme
as §8

[6] = molecular target: T1, BACE1; test: BACE1 biochemical FRET based assay - Method 1 (Test Example 2-2); conditions: 0.04 μg/mL BACE1, 450 minutes, Citrate buffer pH 5.0, read-out: BACE1 Biochemical FRET based assay - Method 1 PIC50 (converted)
Excerpt: as §1, §2, §3, §4, §5, §6, §7, §8

T1 sequence (P56817 46-501): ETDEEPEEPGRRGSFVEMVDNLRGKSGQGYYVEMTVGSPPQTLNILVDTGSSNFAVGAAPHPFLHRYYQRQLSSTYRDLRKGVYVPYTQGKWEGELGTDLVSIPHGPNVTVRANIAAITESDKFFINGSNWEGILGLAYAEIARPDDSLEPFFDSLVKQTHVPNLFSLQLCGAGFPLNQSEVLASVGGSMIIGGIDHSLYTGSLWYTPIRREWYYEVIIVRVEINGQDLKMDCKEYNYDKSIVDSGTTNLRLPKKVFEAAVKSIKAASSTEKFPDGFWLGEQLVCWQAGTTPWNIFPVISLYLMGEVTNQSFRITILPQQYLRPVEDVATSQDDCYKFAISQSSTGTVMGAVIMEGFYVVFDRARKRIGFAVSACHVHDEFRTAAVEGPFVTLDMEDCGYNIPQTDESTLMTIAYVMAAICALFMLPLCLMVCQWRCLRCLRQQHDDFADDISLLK

Compound	selectivity [1]	IC50 [1] [µM]	IC50 [2] [µM]	IC50 [3] [µM]	IC50 [4] [µM]	IC50 [5] [µM]	IC50 [6] [µM]
C[C@H]1OC[C@H]2OC(N)=N[C@](CF)(c3cc(NC(=O)c4cc5c(cn4)OC(F)(F)CO5)ccc3F)[C@@H]12 [Compound I-039]	218	0.00224	0.49	–	–	–	–
CC[C@@H]1OC[C@H]2OC(N)=N[C@](CF)(c3cc(NC(=O)c4cc5c(cn4)OC(F)(F)CO5)ccc3F)[C@@H]12 [Compound I-040]	257	0.00794	2.04	–	–	–	–
NC1=N[C@](CF)(c2cc(NC(=O)c3cc4c(cn3)OC(F)(F)CO4)ccc2F)[C@H]2OCC[C@H]2O1 [Compound I-043]	234	0.00977	2.29	–	–	–	–
C[C@@H]1OC[C@H]2OC(N)=N[C@](CF)(c3cc(NC(=O)c4cc5c(cn4)OC(F)(F)CO5)ccc3F)[C@@H]12 [Compound I-044]	131	0.0145	1.91	–	–	–	–
C[C@H]1OC[C@H]2[C@@H]1OC(N)=N[C@]2(CF)c1cc(NC(=O)c2cc3c(cn2)OC(F)(F)O3)ccc1F [Compound I-050]	199	0.00537	1.07	–	–	–	–
C[C@@H]1C[C@H]2OC(N)=N[C@](CF)(c3cc(NC(=O)c4cc5c(cn4)OCCO5)ccc3F)[C@H]2CO1 [Compound I-054]	646	0.00933	6.03	–	–	–	–
NC1=N[C@](CF)(c2cc(NC(=O)c3cc4c(cn3)OC(F)(F)CO4)ccc2F)[C@H]2CO[C@H](CF)C[C@H]2O1 [Compound I-057]	389	0.00257	1	–	–	–	–
CC1(S(C)(=O)=O)CCC(CF)(c2cc(NC(=O)c3cc4c(cn3)OCC(F)O4)ccc2F)N=C1N (centres unmarked) [II-11]	–	–	–	0.331	0.363	0.00355	0.00646
[2H]C1([2H])Oc2cnc(C(=O)Nc3ccc(F)c(C4(CF)CCC(C)(S(C)(=O)=O)C(N)=N4)c3)c(F)c2OC1([2H])[2H] (centres unmarked) [II-12]	–	–	–	0.372	0.661	0.00257	0.00407
Cc1c(C(=O)Nc2ccc(F)c(C3(CF)CCC(C)(S(C)(=O)=O)C(N)=N3)c2)ncc2c1OCC(F)(F)O2 (centres unmarked) [II-15]	–	–	–	0.331	0.427	0.0229	0.0117
CCS(=O)(=O)C1(CF)CCC(C)(c2cc(NC(=O)c3cc4c(cn3)OC(F)(F)CO4)ccc2F)N=C1N (centres unmarked) [II-34]	–	–	–	0.155	0.295	0.00331	0.00324
CCS(=O)(=O)[C@]1(CF)CC[C@@](C)(c2cc(NC(=O)c3cc4c(cn3)OC(F)(F)O4)ccc2F)N=C1N [II-35]	–	–	–	0.295	0.617	0.00977	0.00537
